These results are taken from patent EP3033337B1, “SUBSTITUTED IMIDAZOLES AS N-TYPE CALCIUM CHANNEL BLOCKERS” (Janssen Pharmaceutica NV, priority 2013, dated 2015).

Experiment [1] addresses T1, human N-type Ca channel (Homo sapiens, UniProt Q00975). Put plainly: Electrophysiological response, QPatch (depolarization -80 mV to +20 mV). As to conditions: for inhibition at 10 µM: read-out: Qpatch Pulse=1 (percent inhibition). A general note: Patch clamp records ionic current or voltage across a cell membrane.
Experiment [2] has as its target T1, human N-type Ca channel. Put plainly: Calcium influx assay (FDSS), KCl depolarization, Fluo8 dye. As to conditions: HEK 293 cells expressing human N-type Ca channel; 100 mM KCl; read-out: N Type IC50 Data FDSS. More on the design: host or cells: HEK 293. Format: cell-based. The method, then: All cell culture reagents were procured from HyClone and other reagents were from Fisher. Recombinant HEK 293 cells expressing human N-type Ca channel (Millipore) were maintained in DMEM F12 containing 10% FBS and selection antibiotics at 37 °C in 5% CO2.
Cells were incubated at 30 °C in 5% CO2 overnight. The medium was removed and cells were loaded with Fluo8 dye (AAT Bioquest) at 37 °C and 30 °C, 30 min each in darkness. Cells were washed four times with wash buffer (16 mM Herep pH 7.2, 2 mM CaCl2, 1 mM MgCl2, 5 mM glucose, 140 mM choline chloride and 2 mM KCl) leaving 15 µL buffer after the last wash. Compounds of Formula (I), serially diluted, were added to the cell plate. The plates were incubated in darkness for 15 min. Cells were depolarized with 100 mM KCl and Ca influx was measured.

Where [3] appears, read: N Type IC50 Data Qpatch Pulse=1, Pulse=1, concentration range 0.3-10 µM.
Where [4] appears, read: N Type IC50 Data Qpatch Pulse=15, Pulse=15, concentration range 0.3-10 µM.
The mark [5] stands for this setting: N Type IC50 Data Qpatch Pulse=1, Pulse=1, concentration range 0.01-1 µM.
The mark [6] stands for this setting: read-out: N Type IC50 Data Qpatch Pulse=15, Pulse=15, concentration range 0.01-1 µM.
Setting [7] is: N Type IC50 Data Qpatch Pulse=15, Pulse=15, concentration range 0.01-1 µM.
[8] abbreviates: read-out: N Type IC50 Data Qpatch Pulse=1, Pulse=1, concentration range 0.01-1 µM.
Where [9] appears, read: Pulse=15, concentration range 0.01-0.3 µM.
[10] abbreviates: N Type IC50 Data Qpatch Pulse=1, Pulse=1, concentration range 0.01-0.3 µM.

T1 sequence (Q00975 whole entry): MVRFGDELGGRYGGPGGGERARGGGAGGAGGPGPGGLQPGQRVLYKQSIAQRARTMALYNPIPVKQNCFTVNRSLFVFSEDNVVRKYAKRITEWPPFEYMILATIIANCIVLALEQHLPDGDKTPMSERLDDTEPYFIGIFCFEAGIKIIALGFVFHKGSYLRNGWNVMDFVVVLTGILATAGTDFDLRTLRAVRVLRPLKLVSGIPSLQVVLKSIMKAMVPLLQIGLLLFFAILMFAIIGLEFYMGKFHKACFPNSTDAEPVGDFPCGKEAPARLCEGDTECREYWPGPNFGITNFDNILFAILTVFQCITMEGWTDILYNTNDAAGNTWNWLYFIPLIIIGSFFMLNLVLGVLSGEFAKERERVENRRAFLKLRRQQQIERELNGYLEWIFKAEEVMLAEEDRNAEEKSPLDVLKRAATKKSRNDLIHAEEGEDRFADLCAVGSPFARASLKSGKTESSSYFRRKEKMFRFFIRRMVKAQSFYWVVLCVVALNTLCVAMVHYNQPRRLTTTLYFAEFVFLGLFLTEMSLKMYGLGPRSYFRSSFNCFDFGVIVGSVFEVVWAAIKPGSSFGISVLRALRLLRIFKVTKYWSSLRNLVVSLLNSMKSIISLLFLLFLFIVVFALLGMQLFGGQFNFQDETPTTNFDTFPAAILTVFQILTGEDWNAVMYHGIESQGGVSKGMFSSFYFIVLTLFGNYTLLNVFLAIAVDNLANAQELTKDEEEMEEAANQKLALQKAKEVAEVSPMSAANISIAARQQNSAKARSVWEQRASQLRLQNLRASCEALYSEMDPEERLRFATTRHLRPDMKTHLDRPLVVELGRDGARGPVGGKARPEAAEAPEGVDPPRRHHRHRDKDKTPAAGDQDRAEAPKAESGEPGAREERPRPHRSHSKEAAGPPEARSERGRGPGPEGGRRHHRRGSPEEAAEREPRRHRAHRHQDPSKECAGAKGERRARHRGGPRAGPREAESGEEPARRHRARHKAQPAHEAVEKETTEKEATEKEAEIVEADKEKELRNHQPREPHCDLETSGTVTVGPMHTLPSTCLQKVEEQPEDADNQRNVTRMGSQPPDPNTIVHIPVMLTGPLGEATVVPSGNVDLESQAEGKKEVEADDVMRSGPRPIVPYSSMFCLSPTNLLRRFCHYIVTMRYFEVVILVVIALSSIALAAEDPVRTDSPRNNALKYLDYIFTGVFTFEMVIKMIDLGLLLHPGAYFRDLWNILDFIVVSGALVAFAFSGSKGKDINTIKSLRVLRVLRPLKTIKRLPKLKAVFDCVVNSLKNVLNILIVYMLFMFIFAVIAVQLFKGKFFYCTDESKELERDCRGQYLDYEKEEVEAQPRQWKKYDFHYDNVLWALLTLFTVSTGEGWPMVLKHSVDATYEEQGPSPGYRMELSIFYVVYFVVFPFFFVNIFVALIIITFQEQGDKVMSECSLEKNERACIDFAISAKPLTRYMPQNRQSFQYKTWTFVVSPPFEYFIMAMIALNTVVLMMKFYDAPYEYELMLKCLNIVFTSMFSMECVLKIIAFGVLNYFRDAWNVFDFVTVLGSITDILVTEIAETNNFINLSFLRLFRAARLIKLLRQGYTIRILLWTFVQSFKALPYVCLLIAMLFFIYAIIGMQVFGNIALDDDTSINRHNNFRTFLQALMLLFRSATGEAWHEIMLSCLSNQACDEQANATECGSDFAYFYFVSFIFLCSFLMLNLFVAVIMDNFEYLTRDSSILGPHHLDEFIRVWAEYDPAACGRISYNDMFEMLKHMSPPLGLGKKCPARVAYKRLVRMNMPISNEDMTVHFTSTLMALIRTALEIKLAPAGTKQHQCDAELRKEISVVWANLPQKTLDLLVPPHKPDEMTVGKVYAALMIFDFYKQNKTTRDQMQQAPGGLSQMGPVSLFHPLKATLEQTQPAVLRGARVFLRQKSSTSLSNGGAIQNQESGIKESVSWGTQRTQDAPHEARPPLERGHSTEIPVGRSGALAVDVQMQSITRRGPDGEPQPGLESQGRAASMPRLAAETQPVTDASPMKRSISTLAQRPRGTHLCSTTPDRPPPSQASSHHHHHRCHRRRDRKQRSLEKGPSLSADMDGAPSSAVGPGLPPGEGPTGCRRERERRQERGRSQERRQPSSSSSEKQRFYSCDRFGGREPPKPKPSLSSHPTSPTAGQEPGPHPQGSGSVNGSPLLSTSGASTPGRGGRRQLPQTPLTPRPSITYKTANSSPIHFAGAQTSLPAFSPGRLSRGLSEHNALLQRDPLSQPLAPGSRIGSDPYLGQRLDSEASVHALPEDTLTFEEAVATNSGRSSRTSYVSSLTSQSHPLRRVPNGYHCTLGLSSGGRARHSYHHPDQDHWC
T1 sequence (P54284 whole entry partner): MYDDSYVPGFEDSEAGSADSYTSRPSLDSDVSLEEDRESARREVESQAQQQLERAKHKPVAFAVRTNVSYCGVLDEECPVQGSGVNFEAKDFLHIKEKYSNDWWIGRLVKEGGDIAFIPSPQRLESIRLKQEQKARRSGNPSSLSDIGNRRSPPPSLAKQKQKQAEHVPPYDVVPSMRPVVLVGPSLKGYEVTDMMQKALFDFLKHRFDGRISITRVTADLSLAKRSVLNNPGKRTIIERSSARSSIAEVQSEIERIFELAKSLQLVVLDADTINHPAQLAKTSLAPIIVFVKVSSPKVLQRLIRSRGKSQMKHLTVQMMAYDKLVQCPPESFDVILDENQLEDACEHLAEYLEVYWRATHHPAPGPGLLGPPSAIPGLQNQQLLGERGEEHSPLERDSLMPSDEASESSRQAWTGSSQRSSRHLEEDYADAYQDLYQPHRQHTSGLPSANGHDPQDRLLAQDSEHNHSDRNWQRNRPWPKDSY
T1 sequence (P54289 25-956 partner limits assumed): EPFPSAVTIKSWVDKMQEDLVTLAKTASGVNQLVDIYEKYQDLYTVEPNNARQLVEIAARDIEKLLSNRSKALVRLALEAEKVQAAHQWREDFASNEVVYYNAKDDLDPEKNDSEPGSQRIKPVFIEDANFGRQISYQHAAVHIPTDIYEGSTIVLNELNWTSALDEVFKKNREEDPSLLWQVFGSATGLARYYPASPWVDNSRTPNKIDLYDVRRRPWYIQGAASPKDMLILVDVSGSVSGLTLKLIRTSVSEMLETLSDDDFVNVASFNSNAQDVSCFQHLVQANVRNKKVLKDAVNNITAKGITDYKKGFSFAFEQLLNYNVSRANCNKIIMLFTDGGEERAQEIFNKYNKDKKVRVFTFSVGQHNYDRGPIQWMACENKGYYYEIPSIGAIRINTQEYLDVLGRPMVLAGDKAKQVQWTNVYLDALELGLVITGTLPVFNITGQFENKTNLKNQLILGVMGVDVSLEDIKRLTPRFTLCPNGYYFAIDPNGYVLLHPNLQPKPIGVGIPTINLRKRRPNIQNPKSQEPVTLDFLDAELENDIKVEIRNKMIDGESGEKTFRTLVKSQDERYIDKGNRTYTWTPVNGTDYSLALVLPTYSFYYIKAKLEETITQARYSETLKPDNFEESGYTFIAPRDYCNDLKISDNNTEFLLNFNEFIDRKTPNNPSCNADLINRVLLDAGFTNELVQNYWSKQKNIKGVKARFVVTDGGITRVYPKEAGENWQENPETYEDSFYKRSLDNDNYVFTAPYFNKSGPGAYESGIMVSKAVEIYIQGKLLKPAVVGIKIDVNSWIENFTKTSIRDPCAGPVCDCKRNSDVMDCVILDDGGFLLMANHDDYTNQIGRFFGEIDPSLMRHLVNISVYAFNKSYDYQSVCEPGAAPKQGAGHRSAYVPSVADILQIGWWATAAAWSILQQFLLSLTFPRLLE
T1 sequence (P54289 957-1103 partner limits assumed): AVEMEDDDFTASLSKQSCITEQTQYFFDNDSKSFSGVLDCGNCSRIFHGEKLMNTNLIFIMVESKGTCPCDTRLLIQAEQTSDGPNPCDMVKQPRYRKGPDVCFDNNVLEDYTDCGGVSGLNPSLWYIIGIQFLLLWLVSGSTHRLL

The IC50 is the concentration at which inhibition is half-maximal. On to `COc1ncccc1-c1nc(C2CC(C)(C)OC(C)(C)C2)cn1-c1ccc(Cl)c(F)c1` [Compound 44, 3-(1-(4-chloro-3-fluorophenyl)-4-(2,2,6,6-tetramethyltetrahydro-2H-pyran-4-yl)-1H-imidazol-2-yl)-2-methoxypyridine], for which the IC50 against human N-type Ca channel [1] (setting [3]) amounted to 2900 nM; at human N-type Ca channel [1] (setting [4]), 3080 nM; at human N-type Ca channel [2], 142 nM.
Consider `COc1ccccc1-c1nc(C2CC(C)(C)OC(C)(C)C2)cn1-c1ccc(F)c(Cl)c1` [Compound 45, 1-(3-chloro-4-fluorophenyl)-2-(2-methoxyphenyl)-4-(2,2,6,6-tetramethyltetrahydro-2H-pyran-4-yl)-1H-imidazole], for which the IC50 at human N-type Ca channel [1] (setting [3]) came out at 2200 nM; on human N-type Ca channel [1] (setting [4]), 671 nM; on human N-type Ca channel [2], 149 nM.
Take `COc1ncccc1-c1nc(C2CC(C)(C)OC(C)(C)C2)cn1-c1ccc(F)c(Cl)c1` [Compound 46, 3-(1-(3-chloro-4-fluorophenyl)-4-(2,2,6,6-tetramethyltetrahydro-2H-pyran-4-yl)-1H-imidazol-2-yl)-2-methoxypyridine]: the results for the IC50 against human N-type Ca channel [1] (setting [4]) and on human N-type Ca channel [2] were 2500 nM and 255 nM, respectively.
On to `COc1nccnc1-c1nc(C2CC(C)(C)OC(C)(C)C2)cn1-c1ccc(F)cc1` [Compound 47, 2-(1-(4-fluorophenyl)-4-(2,2,6,6-tetramethyltetrahydro-2H-pyran-4-yl)-1H-imidazol-2-yl)-3-methoxypyrazine], for which the figures for the IC50 at human N-type Ca channel [1] (setting [5]), on human N-type Ca channel [1] (setting [6]) and on human N-type Ca channel [2] were over 1000 nM, over 1000 nM and 1540 nM, respectively.
For `COc1ncccc1-c1nc(C2CC(C)(C)OC(C)(C)C2)cn1-c1cccc(C#N)c1` [Compound 48, 3-(2-(2-methoxypyridin-3-yl)-4-(2,2,6,6-tetramethyltetrahydro-2H-pyran-4-yl)-1H-imidazol-1-yl)benzonitrile], the results for the IC50 against human N-type Ca channel [1] (setting [5]), against human N-type Ca channel [1] (setting [7]) and at human N-type Ca channel [2] were 222 nM, 843 nM and 5410 nM, respectively.
Regarding `COc1ncncc1-c1nc(C2CC(C)(C)OC(C)(C)C2)cn1-c1ccc(Cl)cc1` [Compound 49, 5-(1-(4-chlorophenyl)-4-(2,2,6,6-tetramethyltetrahydro-2H-pyran-4-yl)-1H-imidazol-2-yl)-4-methoxypyrimidine], the IC50 was over 1000 nM against human N-type Ca channel [1] (setting [5]), over 1000 nM on human N-type Ca channel [1] (setting [6]) and 123 nM at human N-type Ca channel [2].
As for `COc1nccnc1-c1nc(C2CC(C)(C)OC(C)(C)C2)cn1-c1ccc(Cl)cc1` [Compound 50, 2-(1-(4-chlorophenyl)-4-(2,2,6,6-tetramethyltetrahydro-2H-pyran-4-yl)-1H-imidazol-2-yl)-3-methoxypyrazine], the IC50 against human N-type Ca channel [1] (setting [5]) was over 1000 nM; against human N-type Ca channel [1] (setting [7]), 971 nM; on human N-type Ca channel [2], 215 nM.
In the same order, the values of `CCOc1ncccc1-c1nc(C2CC(C)(C)OC(C)(C)C2)cn1-c1ccc(Cl)cc1` [Compound 51, 3-(1-(4-chlorophenyl)-4-(2,2,6,6-tetramethyltetrahydro-2H-pyran-4-yl)-1H-imidazol-2-yl)-2-ethoxypyridine] are 179 nM, 701 nM and 29 nM.
As to `CCOc1ncccc1-c1nc(C2CC(C)(C)OC(C)(C)C2)cn1-c1ccc(F)c(F)c1` [Compound 52, 3-(1-(3,4-difluorophenyl)-4-(2,2,6,6-tetramethyltetrahydro-2H-pyran-4-yl)-1H-imidazol-2-yl)-2-ethoxypyridine], the IC50 at human N-type Ca channel [1] (setting [5]) is 721 nM; at human N-type Ca channel [1] (setting [6]) it was over 1000 nM; at human N-type Ca channel [2], 115 nM.
On to `COc1ccccc1-c1nc(C2CC(C)(C)OC(C)(C)C2)cn1-c1ccc(C(F)(F)F)nc1` [Compound 53, 5-(2-(2-methoxyphenyl)-4-(2,2,6,6-tetramethyltetrahydro-2H-pyran-4-yl)-1H-imidazol-1-yl)-2-(trifluoromethyl)pyridine], for which the IC50 at human N-type Ca channel [1] (setting [3]) is 6500 nM; against human N-type Ca channel [1] (setting [4]), 2010 nM; at human N-type Ca channel [2] it was 96 nM.
For `COc1ncccc1-c1nc(C2CC(C)(C)OC(C)(C)C2)cn1-c1ccc(C(F)(F)F)nc1` [Compound 54, 2-methoxy-3-(4-(2,2,6,6-tetramethyltetrahydro-2H-pyran-4-yl)-1-(6-(trifluoromethyl)pyridin-3-yl)-1H-imidazol-2-yl)pyridine], the IC50 against human N-type Ca channel [1] (setting [5]) worked out at 302 nM; at human N-type Ca channel [1] (setting [7]), 237 nM; at human N-type Ca channel [2] it was 1960 nM. Besides, at human N-type Ca channel [1] (Pulse=1, concentration range 0.01-1 µM), the “N Type IC50 Data Qpatch Pulse=1” value was “Poor fit”. On human N-type Ca channel [1] (Pulse=15, concentration range 0.01-1 µM), the “N Type IC50 Data Qpatch Pulse=15” value is recorded as “Poor fit”.
For `CC1(C)CC(c2cn(-c3ccc(Cl)cc3)c(CC3CC3)n2)CC(C)(C)O1` [Compound 55, 1-(4-chlorophenyl)-2-(cyclopropylmethyl)-4-(2,2,6,6-tetramethyltetrahydro-2H-pyran-4-yl)-1H-imidazole], the IC50 came to 780 nM at human N-type Ca channel [1] (setting [7]) and 384 nM at human N-type Ca channel [2].
In the case of `CC1(C)CC(c2cn(-c3ccc(Cl)cc3)c(C3CC3)n2)CC(C)(C)O1` [Compound 56, 1-(4-chlorophenyl)-2-cyclopropyl-4-(2,2,6,6-tetramethyltetrahydro-2H-pyran-4-yl)-1H-imidazole], the IC50 on human N-type Ca channel [1] (setting [8]) was over 1000 nM; at human N-type Ca channel [1] (setting [6]) it was over 1000 nM; at human N-type Ca channel [2], 1670 nM.
Take `CC1(C)CC(c2cn(-c3ccc(C#N)cc3)c(C3CC3)n2)CC(C)(C)O1` [Compound 57, 4-(2-cyclopropyl-4-(2,2,6,6-tetramethyltetrahydro-2H-pyran-4-yl)-1H-imidazol-1-yl)benzonitrile]: the values for the IC50 at human N-type Ca channel [1] (setting [8]), at human N-type Ca channel [1] (setting [6]) and on human N-type Ca channel [2] were over 1000 nM, over 1000 nM and 10000 nM, respectively.
Turning to `CC1(C)CC(c2cn(-c3ccc(C#N)cc3)c(CC3CC3)n2)CC(C)(C)O1` [Compound 58, 4-(2-(cyclopropylmethyl)-4-(2,2,6,6-tetramethyltetrahydro-2H-pyran-4-yl)-1H-imidazol-1-yl)benzonitrile], the results for the IC50 on human N-type Ca channel [1] (setting [8]), on human N-type Ca channel [1] (setting [6]) and at human N-type Ca channel [2] were over 1000 nM, over 1000 nM and 4810 nM, respectively.
Turning to `CC1(C)CC(c2cn(-c3ccc(C(F)(F)F)nc3)c(CC3CC3)n2)CC(C)(C)O1` [Compound 59, 5-(2-(cyclopropylmethyl)-4-(2,2,6,6-tetramethyltetrahydro-2H-pyran-4-yl)-1H-imidazol-1-yl)-2-(trifluoromethyl)pyridine], the “N Type IC50 Data Qpatch Pulse=1” value at human N-type Ca channel [1] (Pulse=1, concentration range 0.01-0.3 µM) was “poor fit(0.01-0.3 µM)”. Besides, the “N Type IC50 Data Qpatch Pulse=15” value at human N-type Ca channel [1] (setting [9]) was “poor fit(0.01-0.3 µM)”. At human N-type Ca channel [2], the IC50 amounted to 4400 nM.
Regarding `CCOc1nccnc1-c1nc(C2CC(C)(C)OC(C)(C)C2)cn1-c1ccc(Cl)cc1` [Compound 60, 2-(1-(4-chlorophenyl)-4-(2,2,6,6-tetramethyltetrahydro-2H-pyran-4-yl)-1H-imidazol-2-yl)-3-ethoxypyrazine], the half-maximal inhibitory concentration (IC50) came to 247 nM at human N-type Ca channel [1] (setting [10]) and 321 nM at human N-type Ca channel [2]. In addition, on human N-type Ca channel [1] (setting [9]), the “N Type IC50 Data Qpatch Pulse=15” value is reported as “poor fit(0.01-0.3 µM)”.
In the case of `COc1ccccc1-c1nc(C2CC(C)(C)OC(C)(C)C2)cn1-c1ccc(OC(F)F)cc1` [Compound 61, 1-(4-(difluoromethoxy)phenyl) -2-(2-methoxyphenyl)-4-(2,2,6,6-tetramethyltetrahydro-2H-pyran-4-yl)-1H-imidazole], the IC50 against human N-type Ca channel [1] (setting [10]) turned out to be 751 nM; at human N-type Ca channel [1] (N Type IC50 Data Qpatch Pulse=15, Pulse=15, concentration range 0.01-0.3 µM), 1050 nM; at human N-type Ca channel [2] it was 37 nM.
The term inhibition denotes the drop in the measured response relative to a control, in per cent. As for `COc1ccccc1-c1nc(C2CC(C)(C)OC(C)(C)C2)cn1-c1ccc(Br)c(F)c1` [Compound 62, 1-(4-bromo-3-fluorophenyl)-2-(2-methoxyphenyl)-4-(2,2,6,6-tetramethyltetrahydro-2H-pyran-4-yl)-1H-imidazole], the IC50 on human N-type Ca channel [1] (setting [4]) is 413 nM; at human N-type Ca channel [2] it was 177 nM. Moreover, the inhibition at 10 µM on human N-type Ca channel [1] came to 81%.
On to `COc1ccccc1-c1nc(C2CC(C)(C)OC(C)(C)C2)cn1-c1ccc(F)c(Br)c1` [Compound 63, 1-(3-bromo-4-fluorophenyl)-2-(2-methoxyphenyl)-4-(2,2,6,6-tetramethyltetrahydro-2H-pyran-4-yl)-1H-imidazole], for which the IC50 at human N-type Ca channel [1] (setting [4]) was 3500 nM; at human N-type Ca channel [2], 213 nM. In addition, the inhibition at 10 µM at human N-type Ca channel [1] was 53%.
Turning to `COc1ncccc1-c1nc(C2CC(C)(C)OC(C)(C)C2)cn1-c1ccc(F)c(Br)c1` [Compound 64, 3-(1-(3-bromo-4-fluorophenyl)-4-(2,2,6,6-tetramethyltetrahydro-2H-pyran-4-yl)-1H-imidazol-2-yl)-2-methoxypyridine], the IC50 amounted to 4060 nM on human N-type Ca channel [1] (setting [3]), 1720 nM against human N-type Ca channel [1] (setting [4]) and 360 nM at human N-type Ca channel [2].
For `COc1ncccc1-c1nc(C2CC(C)(C)OC(C)(C)C2)cn1-c1ccc(Br)c(F)c1` [Compound 65, 3-(1-(4-bromo-3-fluorophenyl)-4-(2,2,6,6-tetramethyltetrahydro-2H-pyran-4-yl)-1H-imidazol-2-yl)-2-methoxypyridine], the IC50 against human N-type Ca channel [1] (setting [4]) is 8600 nM; on human N-type Ca channel [2] it was 225 nM. In addition, the inhibition at 10 µM on human N-type Ca channel [1] came to 58%.
